ChEMBL document CHEMBL4385620, “Inhibition of polypeptide N-acetyl-α-galactosaminyltransferases is an underlying mechanism of dietary polyphenols preventing colorectal tumorigenesis” (Bioorg Med Chem, 2019)
The source made the active and inactive calls. No cut-off for these calls is given here.

Key:
[1] = molecular target: T1, Polypeptide N-acetylgalactosaminyltransferase 2 (Homo sapiens, UniProt Q10471); assay: Binding affinity of human recombinant FLAG-tagged ppGalNAcT2 expressed in HEK293 cells assessed as dissociation constant by SPR analysis
T1 sequence (Q10471 whole entry): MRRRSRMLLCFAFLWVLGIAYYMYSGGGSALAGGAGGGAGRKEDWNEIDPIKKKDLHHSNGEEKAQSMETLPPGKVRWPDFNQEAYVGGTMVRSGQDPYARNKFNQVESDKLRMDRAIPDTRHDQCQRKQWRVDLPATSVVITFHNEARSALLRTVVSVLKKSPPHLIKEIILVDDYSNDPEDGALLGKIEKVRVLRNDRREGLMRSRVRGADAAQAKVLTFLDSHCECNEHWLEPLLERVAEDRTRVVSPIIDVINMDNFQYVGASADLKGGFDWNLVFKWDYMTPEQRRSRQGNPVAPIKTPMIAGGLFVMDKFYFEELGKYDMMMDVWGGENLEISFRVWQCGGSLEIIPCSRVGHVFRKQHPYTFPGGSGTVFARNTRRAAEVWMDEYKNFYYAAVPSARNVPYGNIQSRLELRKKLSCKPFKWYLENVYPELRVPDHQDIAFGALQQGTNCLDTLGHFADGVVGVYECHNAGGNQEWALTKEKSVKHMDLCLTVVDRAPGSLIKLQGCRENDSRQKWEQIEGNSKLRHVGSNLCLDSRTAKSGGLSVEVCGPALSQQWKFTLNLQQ

[2] = molecular target: T1, Polypeptide N-acetylgalactosaminyltransferase 2; assay: Competitive inhibition of human recombinant FLAG-tagged ppGalNAcT2 expressed in HEK293 cells using EA2 peptide as substrate by HPLC-based enzyme assay
[3] = molecular target: T1, Polypeptide N-acetylgalactosaminyltransferase 2; assay: Non-competitive inhibition of human recombinant FLAG-tagged ppGalNAcT2 expressed in HEK293 cells using UDP-GalNAc as substrate by HPLC-based enzyme assay
[4] = molecular target: T2, Polypeptide N-acetylgalactosaminyltransferase 1 (Homo sapiens, UniProt Q10472); assay: Inhibition of catalytic activity of ppGalNAcT1 (unknown origin) using EA2 peptide as substrate incubated for 30 mins by HPLC-based enzyme assay
T2 sequence (Q10472 whole entry): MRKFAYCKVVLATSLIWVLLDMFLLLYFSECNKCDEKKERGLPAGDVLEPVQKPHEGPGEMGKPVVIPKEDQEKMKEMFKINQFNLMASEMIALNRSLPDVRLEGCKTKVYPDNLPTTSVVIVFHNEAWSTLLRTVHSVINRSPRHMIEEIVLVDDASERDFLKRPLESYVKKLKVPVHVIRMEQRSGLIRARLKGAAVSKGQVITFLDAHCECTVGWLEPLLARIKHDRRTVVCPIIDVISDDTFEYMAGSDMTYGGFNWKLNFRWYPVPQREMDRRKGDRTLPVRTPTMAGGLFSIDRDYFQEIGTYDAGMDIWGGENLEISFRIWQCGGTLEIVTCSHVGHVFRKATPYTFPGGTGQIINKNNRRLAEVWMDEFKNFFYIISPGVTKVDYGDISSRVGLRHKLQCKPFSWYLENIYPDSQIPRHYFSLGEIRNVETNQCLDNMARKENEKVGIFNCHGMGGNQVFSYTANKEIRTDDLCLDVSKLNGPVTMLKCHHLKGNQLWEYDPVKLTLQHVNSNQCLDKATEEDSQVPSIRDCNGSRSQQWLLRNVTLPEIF

[5] = molecular target: T3, Polypeptide N-acetylgalactosaminyltransferase 3 (Homo sapiens, UniProt Q14435); assay: Inhibition of catalytic activity of ppGalNAcT3 (unknown origin) using EA2 peptide as substrate incubated for 30 mins by HPLC-based enzyme assay
T3 sequence (Q14435 whole entry): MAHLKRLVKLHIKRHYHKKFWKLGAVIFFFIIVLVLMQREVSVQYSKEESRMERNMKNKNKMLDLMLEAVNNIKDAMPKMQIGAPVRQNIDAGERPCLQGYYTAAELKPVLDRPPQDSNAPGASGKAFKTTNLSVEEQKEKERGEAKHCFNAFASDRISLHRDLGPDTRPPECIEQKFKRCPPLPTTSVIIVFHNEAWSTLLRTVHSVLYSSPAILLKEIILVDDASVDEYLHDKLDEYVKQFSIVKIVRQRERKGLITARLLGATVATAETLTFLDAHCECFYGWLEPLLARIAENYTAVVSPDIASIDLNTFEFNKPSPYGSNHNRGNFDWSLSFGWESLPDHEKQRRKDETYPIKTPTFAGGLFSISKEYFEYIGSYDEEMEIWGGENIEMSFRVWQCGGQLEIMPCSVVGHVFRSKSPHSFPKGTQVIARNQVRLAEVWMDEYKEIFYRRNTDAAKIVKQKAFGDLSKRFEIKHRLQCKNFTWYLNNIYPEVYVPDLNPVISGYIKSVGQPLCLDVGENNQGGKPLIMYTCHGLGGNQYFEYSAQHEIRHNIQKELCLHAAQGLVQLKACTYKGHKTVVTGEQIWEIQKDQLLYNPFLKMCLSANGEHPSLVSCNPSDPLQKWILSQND

[6] = organism: Homo sapiens; assay: Ratio of IC50 for IC50 for human recombinant FLAG-tagged ppGalNAcT2 W282A mutant to IC50 for human recombinant FLAG-tagged ppGalNAcT2
[7] = molecular target: T1, Polypeptide N-acetylgalactosaminyltransferase 2; assay: Inhibition of ppGalNAcT2 in human HT-29 cells assessed as reduction in O-GalNAc glycans by measuring PNA lectin expression at 20 to 60 uM incubated for 48 hrs by Western blot analysis; assay type: cell-based
[8] = tested on: HT-29; assay: Effect on ppGalNAcT2 expression level in human HT-29 cells at 40 uM incubated for 48 hrs by Q-PCR analysis; assay type: ADME, cell-based; conditions: ht-29, 48 h
[9] = tested on: HT-29; assay: Effect on ppGalNAcT3 expression level in human HT-29 cells at 40 uM incubated for 48 hrs by Q-PCR analysis; assay type: ADME, cell-based; conditions: ht-29, 48 h
[10] = tested on: HT-29; assay: Effect on ppGalNAcT7 expression level in human HT-29 cells at 40 uM incubated for 48 hrs by Q-PCR analysis; assay type: ADME, cell-based; conditions: ht-29, 48 h
[11] = tested on: HT-29; assay: Effect on ppGalNAcT12 expression level in human HT-29 cells at 40 uM incubated for 48 hrs by Q-PCR analysis; assay type: ADME, cell-based; conditions: ht-29, 48 h
[12] = tested on: HT-29; assay: Effect on ppGalNAcT14 expression level in human HT-29 cells at 40 uM incubated for 48 hrs by Q-PCR analysis; assay type: ADME, cell-based; conditions: ht-29, 48 h
[13] = molecular target: T1, Polypeptide N-acetylgalactosaminyltransferase 2; assay: Inhibition of ppGalNAcT2 in human RKO cells assessed as reduction in O-GalNAc glycosylation by measuring VVA lectin expression at 40 uM incubated for 48 hrs by Western blot analysis; assay type: cell-based
[14] = tested on: HCT-116; assay: Cytotoxicity against human HCT116 cells at 40 uM incubated for 48 hrs by CCK-8 assay; assay type: cell-based; conditions: hct-116, 48 h
[15] = tested on: RKO; assay: Cytotoxicity against human RKO cells at 40 uM incubated for 48 hrs by CCK-8 assay; assay type: cell-based
[16] = tested on: HT-29; assay: Antimigratory activity in human HT-29 cells at 40 uM incubated for 48 hrs by crystal violet staining based method; assay type: functional, cell-based
[17] = tested on: SW480; assay: Antimigratory activity in human SW480 cells at 40 uM incubated for 48 hrs by crystal violet staining based method; assay type: functional, cell-based

In the case of `O=c1oc2c(O)c(O)ccc2c2cc(O)c(O)cc12`, the Kd [1] is reported as 0.294 µM, the Ki [2] is reported as 1.07 µM and the Ki [3] is reported as 6.15 µM. For the same compound, the IC50 [4] was 2.46 µM, the IC50 [5] was 1.61 µM and the Ratio IC50 [6] was 4. For the same compound, the inhibition [7] was “Active”, the Activity [8] was “Non-Toxic” and the Activity [9] was “Non-Toxic”. For the same compound, the Activity [10] was “Non-Toxic”, the Activity [11] was “Non-Toxic” and the Activity [12] was “Non-Toxic”. The inhibition [13] was “Active”, the Activity [14] was “Non-Toxic” and the Activity [15] was “Non-Toxic”. The Activity [16] was “Active” and the Activity [17] was “Active”.
